Data as given in patent EP0404162A1, “Composition for treating pigmentation” (priority 1989, dated 1990).

Columns and labels:
[1] = Toxicity (LD50), subcutaneous administration, rats; conditions: rat, in vivo, sc, read-out: LD₅₀
Description: (§1) The toxicity of kojic acid which is the effective ingredient of the present invention is extremely low; LD₅₀ is 2.050 mg/kg in mice and 2.260 mg/kg in rats, by subcutaneous administration. Therefore, the present invention is quite safe as a medicament.

[2] = Toxicity (LD50), subcutaneous administration, mice; conditions: mouse, in vivo, sc, read-out: LD₅₀
Description: as §1

## O=c1cc(CO)occ1O [kojic acid, 5-oxy-2-oxymethyl-γ-pyrone]
[1]
  LD50: 2.26 mg/kg
[2]
  LD50: 2.05 mg/kg
